Measurements reported in patent publication US10959979B2, “Small molecules against cancer” (Biokine Therapeutics Ltd., priority 2015, dated 2021).
“Also recorded” adds a separate entry of the source.

Legend:
Legionella = settings: cited from earlier work
MIP3a = MIP3a (Homo sapiens, UniProt P78556); experiment: Migration of CD4+ T-cells toward MIP3a (Transwell migration assay); assay type: cell-based
Procedure: (§1) 600 μl of RPMI medium was added to the lower chambers of Transwell® transmigration plates, supplemented with 2 μg/ml of MIP3a, 100 ng/ml of SDF-1 or 10 ng/ml of MCP-1. The tested small molecule was added to the lower chambers at the indicated concentration, except in control samples. The MIP3a, SDF-1 or MCP-1 was incubated with the small molecule for 30 minutes at room temperature before the initiation of the migration assay. Following 30 minutes of incubation 2×10^5 immune cells were added to the upper chambers of the transmigration plates in a total volume of 100 μl. Cells which migrated within 3 hours to the bottom chamber of the Transwell® plates were counted using a FACScalibur™ flow cytometer.
To evaluate migration toward MIP3a, peripheral blood mononuclear cells (PBMCs) were isolated from heparinized venous blood by centrifugation over Ficoll Histopaque® 1077. CD4+ T cells were further isolated with RosetteSep™ human CD4+ T-cell Enrichment cocktail (StemCell Technologies Inc.), according to the manufacturer's instructions. CD4+ T cells were re-suspended in RPMI medium containing 1% fetal calf serum (FCS).

MCP-1 = MCP-1 (Homo sapiens, UniProt P13500); experiment: Migration of THP-1 cells towards MCP-1 (Transwell migration assay); assay type: cell-based; settings: BKT300 at 78% purity
Procedure: as §1
To evaluate migration towards MCP-1, THP-1 cells were re-suspended in RPMI medium containing 1% fetal calf serum (FCS).

SDF-1 = SDF-1 (Homo sapiens, UniProt P48061); experiment: Migration of Jurkat cells towards SDF-1 (Transwell migration assay); assay type: cell-based; settings: for Selectivity of inhibition of SDF-1 function over MCP-1 and/or MIP3a function: at a concentration of about 10 μg/ml
Procedure: as §1
To evaluate migration towards SDF-1, Jurkat cells were re-suspended in RPMI medium containing 1% fetal calf serum (FCS).

[1] = system: MV4-11 human acute myeloid leukemia cells; experiment: Cancer cell viability, FACS with propidium iodide staining; assay type: cell-based; settings: 24 hours
Procedure: In order to assess the effect of compounds of Table 2 on cancer cell viability, the in vitro effect of the compounds on MV4-11 human acute myeloid leukemia cells was evaluated. The cancer cells were incubated in RPMI cell medium with 1% fetal calf serum (FCS) at a concentration of 2×10^5 cells/well at a final volume of 250 μl in 96-well plate. The compounds were added to the cells at the indicated concentrations. The cells were incubated for 24 hours and the number of dead and viable cells was then evaluated by fluorescence-activated cell sorting (FACS), using propidium iodide (PI) staining.

cancer cells = settings: literature reports; cited from earlier work
[2] = system: MCP-1 expression in adipocytes; settings: reported by Kuroyanagi et al.; cited from earlier work

Chain of SDF-1 (P48061 22-93): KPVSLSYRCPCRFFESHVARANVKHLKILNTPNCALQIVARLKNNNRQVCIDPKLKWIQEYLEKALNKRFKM
Chain of MCP-1 (P13500 24-99): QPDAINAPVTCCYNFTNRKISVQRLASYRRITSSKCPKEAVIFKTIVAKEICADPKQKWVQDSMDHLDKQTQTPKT
Chain of MIP3a (P78556 27-96): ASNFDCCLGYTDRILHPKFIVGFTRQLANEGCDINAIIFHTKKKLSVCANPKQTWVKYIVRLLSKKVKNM

Row | Compound | Inhibition of CD4+ T-cell migration towards MIP3a (MIP3a; 50 μg/ml, BKT300 at 78% purity) | Inhibition of migration of monocytic THP-1 cells towards MCP-1 (MCP-1; 10 μg/ml) | Inhibition of migration of monocytic THP-1 cells towards MCP-1 (MCP-1; 50 μg/ml) | Inhibition of migration of lymphocytic Jurkat cells towards SDF-1 (SDF-1; 10 μg/ml, BKT300 at 78% purity) | Inhibition of CD4+ T-cell migration towards MIP3a (MIP3a; 10 μg/ml) | further results
1 | CCCCCC(=O)Cc1cc(O)cc(O)c1Oc1cc(O)cc2cc(CCCCC)oc(=O)c12 [8-(2,4-dihydroxy-6-(2-oxoheptyl)-phenoxy)-6-hydroxy-3-pentyl-1H-isochromen-1-one] |  |  |  |  |  | Antibacterial activity against Legionella (Legionella): potent antibacterial activity
2 | CC(C)=CCc1c(O[C@@H]2O[C@H](CO)[C@@H](O)[C@H](O)[C@H]2O)cc(O)c2c1O[C@H](c1ccc(O)cc1)CC2=O [BKT201] | completely inhibited | no apparent effect | strong inhibition | significantly inhibited; also recorded: strong inhibition |  | Selectivity of inhibition of SDF-1 function over MCP-1 and/or MIP3a function (SDF-1): relatively selective manner
3 | C=C1CCC2C(C)(C)C(O)CCC2(C)C1COc1ccc2ccc(=O)oc2c1 (stereo not drawn) [BKT202] | completely inhibited |  |  |  | significantly inhibited | 
4 | Cc1cc(O)c2c(=O)c3c(O)cc(O)c4c5c(O)cc(O)c6c(=O)c7c(O)cc(C)c8c1c2c(c34)c(c78)c65 [BKT203, Hypericin] |  |  |  | significantly inhibited; also recorded: strong inhibition | completely inhibited | 
5 | Cc1c(O)c(C)c2c(c1O)C(=O)CC(c1ccc(O)c(O)c1)O2 (stereo not drawn) [BKT204, Cyrtominetin] |  | partial inhibition | strong inhibition | significantly inhibited |  | 
6 | CCCCCC=CC=CC(=O)CCCCCCCC(=O)O [BKT205] | completely inhibited | no apparent effect | strong inhibition | significantly inhibited; also recorded: strong inhibition |  | Selectivity of inhibition of SDF-1 function over MCP-1 and/or MIP3a function (SDF-1): relatively selective manner
7 | CCC/C=C\C/C=C\CCCCCCCc1cccc(O)c1C(=O)O [BKT206] |  | partial inhibition | strong inhibition | significantly inhibited; also recorded: strong inhibition | completely inhibited | Cell death of MV4-11 cells ([1]; 10 μg/ml): induced cell death
8 | COC(=O)c1c(O)cc2c(c1C)C(=O)c1c(O)cccc1C2=O [BKT207, Aloesaponarin I] |  |  |  | significantly inhibited; also recorded: strong inhibition | completely inhibited | 
9 | C/C(=C/COc1c2occc2cc2ccc(=O)oc12)CO [BKT208, Trichoclin] |  |  |  | significantly inhibited |  | 
10 | CCCCCCCCC(=O)/C=C/C=C/C(=O)CCCC(=O)O [BKT209] | completely inhibited | no apparent effect | strong inhibition | significantly inhibited; also recorded: strong inhibition |  | Selectivity of inhibition of SDF-1 function over MCP-1 and/or MIP3a function (SDF-1): relatively selective manner
11 | O=C(O)c1cc(O)c2c(c1)[C@H]([C@H]1c3cc(C(=O)O)cc(O)c3C(=O)c3c(O[C@@H]4O[C@H](CO)[C@@H](O)[C@H](O)[C@H]4O)cccc31)c1cccc(O[C@@H]3O[C@H](CO)[C@@H](O)[C@H](O)[C@H]3O)c1C2=O [BKT210, Sennoside A] | completely inhibited |  |  | significantly inhibited | significantly inhibited | 
12 | CC1CCC2=C(CCCC2(C)C(=O)O)C1(C)CCc1ccoc1 (stereo not drawn) [BKT211] |  | complete inhibition | strong inhibition | significantly inhibited; also recorded: strong inhibition |  | Cell death of MV4-11 cells ([1]; 10 μg/ml): induced cell death
13 | C=C[C@H](O)C#CC#C[C@@H](O)/C=C\CCCCCCC [BKT212, Falcarindiol] |  |  |  | significantly inhibited; also recorded: strong inhibition | completely inhibited | Inhibition of cancer cells (cancer cells): inhibit cancer cells
14 | CC(C)=CCc1cc(OC2O[C@H](CO)[C@@H](O)[C@H](O)[C@H]2O)cc(CC=C(C)C)c1C(O)C(=O)O (stereo partly drawn) [BKT213] | completely inhibited |  |  | significantly inhibited; also recorded: strong inhibition |  | Selectivity of inhibition of SDF-1 function over MCP-1 and/or MIP3a function (SDF-1): relatively selective manner
15 | CC(C)=CCC/C(C)=C/COc1ccc2ccc(=O)oc2c1 [BKT215, Auraptene] |  |  |  |  |  | Inhibition of cancer cells (cancer cells): inhibit cancer cells; MCP-1 expression in adipocytes [2]: suppress MCP-1 expression; Cell death of MV4-11 cells ([1]; 20 am (equivalent to 6 μg/ml)): induced cell death
16 | CC1(C)CC[C@]2(C(=O)O)CC[C@]3(C)C(=CC[C@@H]4[C@@]5(C)C[C@@H](O)[C@H](O)[C@@](C)(CO)[C@@H]5CC[C@]43C)[C@@H]2C1 [BKT216, Arjunolic acid] |  | partial inhibition | strong inhibition |  |  | Inhibition of cancer cells (cancer cells): inhibit cancer cells
17 | CCCCCc1cc2cc(O)cc(Oc3c(O)cc(O)c(C(=O)O)c3CCCCC)c2c(=O)o1 [BKT400] |  |  |  |  |  | Inhibition of migration of lymphocytic Jurkat cells towards SDF-1 (SDF-1; 1 and 10 μg/ml tested (FIG. 15)): inhibit the migration
